Experimental findings from patent US10774080B2, “Pyrimidine compound as JAK kinase inhibitor” (THERAVANCE BIOPHARMA R&D IP, LLC, priority 2017, dated 2020) are described below.

Data set [1] in a line: Assay 9: skin tissue concentration in mice. Type of data set: in vivo. Particulars: Balb/c, mouse, topical ointment 25 μl/cm^2, biopsy one hour after IL-31. An excerpt: The JAK/STAT (janus kinase/signal transducer and activator of transcription) signaling pathway is a key element in the communication between immune cells and is mainly activated through cytokine receptors. Binding of cytokine IL-31 leads to the activation and phosphorylation of JAK1/JAK2 tyrosine kinases which in turn leads to the phosphorylation of STAT3 (pSTAT3). The activated STAT then translocates into the nucleus and directly regulates the transcription of cytokine-sensitive genes. In these studies, Balb/c mice were dosed with an ointment formulation of compound (I). Ointment vehicle (Table 9) or compound (I) formulated in the ointment vehicle was applied topically to shaved skin (25 μl/cm^2) 30 minutes before the intradermal injection (50 μl/1×1 cm2 site) of IL-31 (1 μg/ml) at a 1×1 cm^2 shaved area of skin on the back between the ears. One hour after IL-31, skin biopsies were collected. The tissue samples were flash frozen and analyzed for pSTAT3 by ELISA and compound concentration. Compound (I) inhibited pSTAT3 production by 80% and the skin tissue concentration of compound (I) was 62 μM.

In a further data set the target is T1, JAK1 (Homo sapiens, UniProt P23458).
T1 construct: GST; purchased Life Technologies
The experiment in a line: Biochemical JAK kinase assay (LanthaScreen), JAK1. Particulars: converted from pIC50 by Cheng-Prusoff; ATP at Km 25 μM; read-out: JAK 1 (pKi) (converted). As to the method:
Assay 1: Biochemical JAK and Tyk2 Kinase Assays A panel of four LanthaScreen JAK biochemical assays (JAK1, 2, 3 and Tyk2) were carried in a common kinase reaction buffer (50 mM HEPES, pH 7.5, 0.01% Brij-35, 10 mM MgCl2, and 1 mM EGTA). Recombinant GST-tagged JAK enzymes and a GFP-tagged STAT1 peptide substrate were obtained from Life Technologies. Serially or discretely diluted compounds were pre-incubated with each of the four JAK enzymes and the substrate in white 384-well microplates (Corning) at ambient temperature for 1 h. ATP was subsequently added to initiate the kinase reactions in 10 μL total volume, with 1% DMSO. […] The plates were allowed to incubate at ambient temperature for 1 h before being read on the EnVision reader (Perkin Elmer). Emission ratio signals (520 nm/495 nm) were recorded and utilized to calculate the percent inhibition values based on DMSO and background controls. For dose-response analysis, percent inhibition data were plotted vs. compound concentrations, and IC50 values were determined from a 4-parameter robust fit model with the Prism software (GraphPad Software). Results were expressed as pIC50 (negative logarithm of IC50) and subsequently converted to pKi (negative logarithm of dissociation constant, Ki) using the Cheng-Prusoff equation.
On the technique in general: In TR-FRET formats the signal depends on donor and acceptor labels being close together.

Data set [2] concerns TSLP-induced TARC release from PBMCs. Briefly: Assay 4: TSLP-induced TARC assay in human PBMC. Type of data set: cell-based. To be noted: 10 ng/mL TSLP, 48 hours, read-out: pIC50 for inhibition of TSLP induced TARC (converted). An excerpt:
Assay 4: In Vitro TSLP-Induced TARC Assay in Human PBMC
The binding of TSLP to its receptor induces a conformational change that activates JAK1 and JAK2 to phosphorylate various transcription factors including STAT3 and STAT5. In skin-resident immune cells, this triggers a cascade of intracellular events that result in cell proliferation, anti-apoptosis, dendritic cell migration, and production of Th2 cytokines and chemokines. During the acute phase of atopic dermatitis, the skin is invaded by Th2 lymphocytes. In primary peripheral blood mononuclear cells (PBMCs), TSLP has a pro-inflammatory effect by activating myeloid dendritic cells to attract and stimulate T cells. This process is mediated by thymus and activation-regulated chemokine (TARC/CCL17). […]
In this assay, it was shown that TSLP stimulation induces TARC release from PBMCs, and that this response is attenuated in a dose-dependent manner upon treatment with compound (I). […] After 48 hours, the cell supernatants were collected, and TARC was measured using Human CCL17/TARC Quantikine ELISA Kit.
For dose-response analysis, percent inhibition data were plotted vs. compound concentrations, and IC50 values were determined from a 4-parameter robust fit model with the GraphPad Prism software. Results may also be expressed as the negative logarithm of the IC50 value, pIC50.

The nature of data set [3]: Assay 16: Caco-2 permeation assay. The class given is in vitro ADME. To be noted: human, Caco-2, with Verapamil 25 μM (P-gp); as illustrated in Table 13; read-out: permeability class (Caco-2). As to the method: (§1) Assay 16: Caco-2 Permeation Assay The Caco-2 permeation assay was used as an indication of skin permeability. The assay measures the rate at which test compounds in solution permeate a cell monolayer (designed to mimic the tight junction of human small intestinal monolayers). CacoReady 24-well transwell plates were obtained from […], Calif.). The compounds were evaluated at a concentration of 5 μM from 10 mM DMSO stock solutions in duplicate (n=2). The passive permeability of the compounds tested was evaluated using Caco-2 cell monolayers along with Verapamil (25 μM) to inhibit P-gp transport proteins in the apical to basolateral (A-B) direction. The experiment was conducted in a 37° C., 5% CO2 incubator. Caco-2 culture media consisted of standard filtered DMEM, FCS 10%, L-Glutamine 1% and PenStrep 1%. Basal assay plate was prepared by adding 750 μL of transport buffer to A-B wells. A CacoReadyTM plate was prepared by removing the Caco-2 media from the apical wells and replacing with fresh transport media (200 μL repeated for a total of 3 washes). Blank media (200 μL) was then replaced with diluted compound for A-B wells. To begin the incubation, the basal plate was removed from the incubator and the apical section was added on top of it. […] The permeation coefficient (Kp, mean A to B+Verapamil […]) in cm/sec was calculated as dQ (flux)/(dt×Area×concentration).

The next data set relates to Caco-2 cell monolayers. Briefly: Assay 16: Caco-2 permeation assay. Type of data set: in vitro ADME. Particulars: 5 μM, A to B, with Verapamil (25 μM), 120 minutes. As to the method:
as §1
(In general: Caco-2 monolayers are a common model of the intestinal barrier.)

T1 sequence (P23458 whole entry): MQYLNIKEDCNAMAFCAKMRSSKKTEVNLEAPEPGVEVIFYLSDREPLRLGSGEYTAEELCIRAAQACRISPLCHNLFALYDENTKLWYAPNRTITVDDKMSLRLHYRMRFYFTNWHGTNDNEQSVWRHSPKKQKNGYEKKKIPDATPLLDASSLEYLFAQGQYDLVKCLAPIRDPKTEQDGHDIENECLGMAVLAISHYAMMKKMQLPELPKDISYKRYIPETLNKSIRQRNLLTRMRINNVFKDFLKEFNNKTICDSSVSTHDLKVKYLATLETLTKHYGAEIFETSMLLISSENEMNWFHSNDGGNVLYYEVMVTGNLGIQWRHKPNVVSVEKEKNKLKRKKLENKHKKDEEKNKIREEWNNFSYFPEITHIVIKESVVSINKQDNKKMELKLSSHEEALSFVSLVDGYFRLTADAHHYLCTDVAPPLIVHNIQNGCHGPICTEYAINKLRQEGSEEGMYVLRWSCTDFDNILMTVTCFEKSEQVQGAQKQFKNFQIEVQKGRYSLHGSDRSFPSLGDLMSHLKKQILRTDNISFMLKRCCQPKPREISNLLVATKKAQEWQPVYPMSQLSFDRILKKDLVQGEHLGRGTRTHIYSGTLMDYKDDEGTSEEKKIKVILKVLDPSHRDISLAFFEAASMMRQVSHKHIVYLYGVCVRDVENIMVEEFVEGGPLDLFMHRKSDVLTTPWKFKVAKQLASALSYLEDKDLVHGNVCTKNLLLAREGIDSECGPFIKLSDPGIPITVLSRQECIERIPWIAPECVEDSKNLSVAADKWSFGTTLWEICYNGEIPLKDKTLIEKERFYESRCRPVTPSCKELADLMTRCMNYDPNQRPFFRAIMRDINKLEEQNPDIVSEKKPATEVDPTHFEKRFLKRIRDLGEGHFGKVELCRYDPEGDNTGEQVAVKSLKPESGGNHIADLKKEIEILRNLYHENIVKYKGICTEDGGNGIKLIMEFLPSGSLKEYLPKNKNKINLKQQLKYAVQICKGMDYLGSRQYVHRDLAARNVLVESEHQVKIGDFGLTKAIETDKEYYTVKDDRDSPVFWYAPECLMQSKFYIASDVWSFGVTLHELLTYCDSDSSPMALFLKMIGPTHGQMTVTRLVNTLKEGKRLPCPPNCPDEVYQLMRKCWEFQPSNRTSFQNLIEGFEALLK

Consider `CCS(=O)(=O)N1[C@@H]2CCC[C@H]1C[C@H](N(C)c1nc(CO)c(F)c(Nc3cc(C)[nH]n3)n1)C2` [Compound (I), (2-(((1R,3s,5S)-9-(ethylsulfonyl)-9-azabicyclo[3.3.1]nonan-3-yl)(methyl)amino)-5-fluoro-6-((5-methyl-1H-pyrazol-3-yl)amino)pyrimidin-4-yl)methanol], for which the concentration at 1.5 h in data set [1] amounted to 62 µM. Moreover, the Ki on JAK1 was 0.0631 nM. Besides, the IC50 in data set [2] is 15.8 nM. For the same compound, the Papp A→B at 120 min, 5 μM in data set [3] was > 20 ×10⁻⁶ cm/s. In the data set with Caco-2 cell monolayers, the “Cacoverap Kp” value stood at 42.3 ×10⁻⁶ cm/s.
